Results taken from US20100215710A1, “Beta-2 Adrenergic Receptor Agonists and Antagonists and Modulation of Wound Healing” (The Regents of the University of California, priority 2005, published 2010).

Columns and labels:
[1] = system: phospho-ERK; assay: Phospho-ERK immunolocalization in keratinocytes; format: cell-based, human
Description: Sterile glass cover-slips (Fisher Scientific, Pittsburgh, Pa.) were transferred into 12 well dishes and collagen-coated with 60 μg/ml collagen I in KGM for 1 hour at 37° C. Cover-slips were washed three times with KGM and 3×10^4 cells were added per well and allowed to attach overnight. Cells were untreated, treated with 1 μM β-AR agonist for 15 minutes, OA (10 nM) for 45 minutes, or pre-treated with OA (10 nM) for 30 minutes prior to the addition of 1 μM β-AR agonist for 15 minutes. All steps were performed at room temperature unless otherwise noted. Cover slips were washed twice in PBS and fixed for 10 minutes in 4% paraformaldehyde. Cover-slips were washed twice in PBS between each step. Cells were permeabilized for 5 minutes with 0.1% Triton-X-100/PBS, blocked with 5% goat serum/PBS for 20 minutes, primary monoclonal anti-vinculin antibody (Sigma, St. Louis, Mo.) or anti-phospho-ERK antibody (Cell Signaling Technology, Beverly, Mass.) were added drop-wise in 1% goat serum/PBS (1:100) and incubated for 1 hour at 37° C. A goat anti-mouse cy3 (Jackson labs, West Grove, Pa.) (1:100) antibody was then added in 1% goat serum/PBS for 1 hour at 37° C. Alexa 488-phalloidin (Molecular Probes, Eugene, Oreg.) (1:40) in PBS was added to the vinculin-stained cover-slips for 20 minutes. […]

[2] = system: human keratinocytes; assay: Single cell migration assay, keratinocytes (clenbuterol, OA); format: cell-based
Description: All single cell migration assays were performed on cells plated on glass cover-slips inserted into 35 mm plastic dishes (MatTek Corp., Ashland, Mass.) that had been coated for 1 hour at 37° C. with 60 μg/ml collagen L Cells were plated onto the collagen-coated glass cover-slips at a density of 250 cells/mm^2 for 3-6 hours at 37° C. Cells were either untreated (control), pre-treated with 10 nM okadaic acid (OA) (10 nM) for 45 minutes prior to the addition of OA (10 nM) and clenbuterol (1 μM) (OA/Clen) or treated with either OA or clenbuterol (1 μM) alone at time 0. The dishes were inserted into metal plates, maintained at 37° C., on inverted Nikon Diaphot microscopes to monitor single cell migration. Time-lapse images of the cell migratory response were digitally captured every 10 minutes over a one-hour period by Q-Imaging Retiga-EX cameras (Burnaby, BC, Canada) controlled by a custom automation written in Improvision Open Lab software (Lexington, Mass.) on a Macintosh G4. After each cell's center of mass was tracked using the Open Lab software, migration speed and distance were calculated and imported to Excel (Microsoft Corporation, Redmond, Wash.). Significance was taken as p<0.01, using Student's t test (unpaired) to compare the means of the control and β-AR agonist-treated cell populations.
Keratinocytes were plated onto collagen-coated glass cover-slips at a concentration of 250 cells/mm^2 in KGM for 3-6 hours at 37° C. The migration of each single cell was monitored over a one-hour period, and the results were analyzed in excel as described. The speed of migration ([…]) is represented graphically in FIG. 1 Panel C, control n=57, clenbuterol n=57, OA n=60, OA-clenbuterol n=44. The data are representative of three independent experiments with at least two different keratinocyte strains. * P<0.01 between β-AR agonist and controls; #P<0.01 between OA-clenbuterol and clenbuterol alone.

[3] = system: adult human CECs; assay: Single cell migration assay, adult human corneal epithelial cells; format: cell-based
Description: Glass bottomed 35 mm dishes (MatTek Corporation, Ashland, Mass.) were coated with collagen I (60 μg/ml) (Cohesion Technologies, Palo Alto, Calif.) in PBS for 1 hour at 37° C. Adult human CECs were plated at a density of 50 cells/mm^2 for 2 hours at 37° C. Cells were pre-incubated with either CGM alone or CGM containing 100 nM okadaic acid (OA) for 45 minutes at 37° C. Untreated cells were then incubated with CGM alone (control) or with CGM containing either 20 μM β-AR antagonist, 10 nM or 1 μM β-AR agonist. Pre-treated cells were stimulated with 100 nM OA alone or both 10 nM or 1 μM β-AR agonist and 100 nM OA at time 0. The 35 mm glass-bottomed dishes were placed in a heating chamber, designed to maintain the media between 35-37° C., secured to the stage of an inverted Nikon Diaphot microscope. Individual cell migration was monitored over a 1 hour period at 37° C., as described previously (Pullar and Isseroff (2005b) “Cyclic AMP mediates keratinocyte directional migration in an electric field” J Cell Sci 118:2023-2034). […] After each cell's center of mass was tracked using the Open Lab software, migration speed and distance were calculated and imported to Excel (Microsoft Corporation, Redmond, Wash.). […]

C=C1[C@@H](O)[C@@H]2O[C@]3(CC[C@H](/C=C/[C@@H](C)[C@@H]4CC(C)=C[C@@]5(O[C@H](C[C@@](C)(O)C(=O)O)CC[C@H]5O)O4)O3)CC[C@H]2O[C@@H]1[C@@H](O)C[C@H](C)[C@H]1O[C@@]2(CCCCO2)CC[C@H]1C [OA, okadaic acid] was tested, and the “effect on level of ERK phosphorylation or localization” value ([1]; OA 10 nM alone) was “no effect”, the “effect on agonist-induced loss of lamellipodial phospho-ERK localization and nuclear/peri-nuclear decrease” value ([1]; OA 10 nM pre-treatment prior to 1 μM β-AR agonist) was “prevents” and the “effect on keratinocyte migration” value ([2]; OA 10 nM alone) was “no effect”. For the same molecule, the “effect on clenbuterol-induced reduction in speed” value ([2]; OA 10 nM pre-treatment, then OA plus 1 μM clenbuterol) was “completely prevents”, the “effect on migration rate” value ([3]; OA 100 nM alone) was “no effect” and the “effect on β-AR agonist-mediated decrease in migration rate” value ([3]; OA 100 nM pre-treatment, then OA plus β-AR agonist) was “completely prevents”.
